Three compounds from US20230106238A1, “PHARMACEUTICAL COMPOSITION FOR PREVENTING OR TREATING NK/T-CELLLYMPHOMA OR NK-CELL LEUKEMIA, COMPRISING PHOSPHODIESTERASE TYPE 5 INHIBITOR” (SAMSUNG LIFE PUBLIC WELFARE FOUNDATION, priority 2020, published 2023) can be followed below.

Common to all, as to type: cell-based
Data set [1] concerns Epstein-Barr virus (EBV) reactivation in 1A2 cell line (lymphoma). Description: EBV reactivation by romidepsin in 1A2 cell line (BZLF1/BRLF1 mRNA). To be noted: romidepsin 1 or 10 nM, 72 hours. The procedure:
(§1) EBV-positive cell lines other than SNK6 and NK92MI were collected to identify EBV reactivity by romidepsin and the effect of sildenafil. As EBV-positive cell lines, the Daudi cell line (ATCC, CCL-213) and Raji cell line (ATCC, CCL-86), which are Burkitt's lymphoma cells, and the 1A2 cell line (ATCC, CRL-8119), which is a lymphoma cell, were treated with 1 or 10 nM of romidepsin for 72 hours, and mRNA expression of BZLF1 and BRLF1, genes whose expression is increased in EBV reactivation, was identified. The results for BZLF1 mRNA expression of the Daudi cell line are shown in FIG. 3A, and the results for BRLF1 mRNA expression are shown in FIG. 3B. In addition, the results for BZLF1 mRNA expression of the Raji cell line are shown in FIG. 3C, and the results for BRLF1 mRNA expression are shown in FIG. 3D. In addition, the results for BZLF1 mRNA expression of the 1A2 cell line are shown in FIG. 3E, and the results for BRLF1 mRNA expression are shown in FIG. 3F.

In data set [2] the test system is Epstein-Barr virus (EBV) reactivation in NK/T-cell lymphoma cell line SNK6. As to the kind of experiment: EBV reactivation by romidepsin in SNK6 cells (real-time PCR of BZLF1/BRLF1 mRNA, EBV copy number). The procedure: (§2) The NK/T-cell lymphoma cell line SNK6 (source; Seoul National University) and the NK-cell leukemia cell line NK92MI (source; Seoul National University) were treated with the HDAC inhibitor, romidepsin 10 nM, and the PDE5 inhibitor, sildenafil 100 nM, for 24, 48, and 72 hours. After treatment, cells were harvested […]. Then, RNA was extracted using TRIzol reagent (Ambion, Life technologies), cDNA synthesis was performed using Omniscript RT kit (Qiagen), and the expression of BZLF1, an mRNA expressed during EBV reactivation, was identified through real-time PCR. The group treated with DMSO only was used as a control group.
(§3) BZLF1 mRNA expression was measured in the same manner as in Example 1, with a group treated with sildenafil alone and a group treated with 10 nM of romidepsin simultaneously at a concentration of sildenafil of 10, 100 or 1000 nM in SNK6 and NK92MI cells as experimental groups. The treatment time was 72 hours.
(§4) The inhibition of EBV reactivation by sildenafil (100 nM, 72 hours), which was shown by treatment with 10 nM of romidepsin in SNK6 and NK92MI cell lines for 72 hours, was measured through EBV copy number, BALF5, BZLF1, and BRLF1 expression. In addition, cell growth was measured by counting live cells through trypan blue staining. BALF5 is a gene with the function of generating viral DNA produced through EBV reactivation. DNA was extracted from the medium using QIAamp DNA mini kit (Qiagen) and real-time quantitative PCR was performed to measure […]. […] The results of measuring the number of EBV copies in the SNK6 cells identified as described above are shown in FIG. 5A, the expression of BZLF1 mRNA is shown in FIG. 5B, the expression of BRLF1 mRNA is shown in FIG. 5C, and the survival rate of tumor cells is shown in FIG. 5D. In addition, the expression of BRLF5 mRNA in NK92MI cells is shown in FIG. 6A, the expression of BZLF1 mRNA is shown in FIG. 6B, the expression of BRLF1 mRNA is shown in FIG. 6C, and the survival rate of tumor cells is shown in FIG. 6D.
BZLF1 and BRLF1 mRNA expressions were identified and measured by qPCR in the same manner as in Example 3.1 that EBV reactivation, which was shown by treatment of 10 nM of romidepsin in the SNK6 cell line, was inhibited by the PDE5 inhibitors of vardenafil, udenafil or tadalafil. In this connection, vardenafil was treated with 100 nM for 72 hours, udenafil was treated with 100 nM for 48 hours, and tadalafil was treated with 1000 nM for 24 hours. The expression of BZLF1 mRNA in the vardenafil-administered group is shown in FIG. 7A, and the expression of BRLF1 mRNA is shown in FIG. 7B. In addition, the expression of BZLF1 mRNA in the udenafil-administered experimental group is shown in FIG. 7C, and the expression of BRLF1 mRNA is shown in FIG. 7D. In addition, the expression of BZLF1 mRNA in the tadalafil-administered experimental group is shown in FIG. 7E, and the expression of BRLF1 mRNA is shown in FIG. 7F.

Data set [3] relates to Epstein-Barr virus (EBV) reactivation in NK-cell leukemia cell line NK92MI. As to the kind of experiment: EBV reactivation by romidepsin in NK92MI cells (real-time PCR of BZLF1/BRLF1/BALF5). To be noted: 72 hours. The protocol: as §2, §3, §4
The subject of data set [4] is Epstein-Barr virus (EBV) reactivation in Daudi cell line (Burkitt's lymphoma). As to the kind of experiment: EBV reactivation by romidepsin in Daudi cell line (BZLF1/BRLF1 mRNA, EBV copy number). The following applies: sildenafil 100 nM + romidepsin 10 nM simultaneously, 72 hours, versus romidepsin alone. The procedure:
as §1
When sildenafil and romidepsin were simultaneously treated in the Daudi cell line, which is a cell line showing EBV reactivation by romidepsin identified in Example 3.1, an experiment was performed to determine whether EBV reactivation by romidepsin was inhibited. In the Daudi cell line, a group treated with 10 nM of romidepsin and 100 nM of sildenafil separately for 72 hours and a group treated therewith simultaneously were used as experimental groups, and a group treated with DMSO only was used as a control group. In order to measure the EBV copy number secreted out of the cell by EBV reactivation, by extracting DNA from the medium and measuring the Ct value by real-time PCR and comparing the same with the reference EBV number, the EBV copy number was measured and shown in FIG. 4A. In the same manner as in Example 3.1, BZLF1 mRNA expression was measured and shown in FIG. 4B, and BRLF1 mRNA was measured and shown in FIG. 4C.

A further data set relates to SNK6 cells. Description: Cell growth/viability by counting live cells through trypan blue staining, SNK6. The following applies: sildenafil 100 nM + romidepsin 10 nM, 72 hours; versus romidepsin alone. The protocol:
as §4

The next data set has as its system NK92MI cells. Description: Cell growth/viability by counting live cells through trypan blue staining, NK92MI. The following applies: sildenafil 100 nM + romidepsin 10 nM, 72 hours; versus romidepsin alone. The procedure:
as §4

[5] abbreviates: SNK6 cell line, udenafil 100 nM for 48 hours with romidepsin 10 nM.
The mark [6] stands for this setting: SNK6 cell line, sildenafil 100 nM + romidepsin 10 nM, 72 hours, versus romidepsin alone.
The mark [7] stands for this setting: NK92MI cell line, sildenafil 100 nM + romidepsin 10 nM, versus romidepsin alone.

Consider `C/C=C1\NC(=O)[C@H]2CSSCC/C=C/[C@H](CC(=O)N[C@H](C(C)C)C(=O)N2)OC(=O)[C@H](C(C)C)NC1=O` [romidepsin], for which, in data set [1], the “expression of BRLF1 mRNA” value is listed as “increased” and the “expression of BZLF1 mRNA” value was “only the expression of BRLF1 was increased”.
Take `CCCOc1ccc(S(=O)(=O)NCCC2CCCN2C)cc1-c1nc2c(CCC)nn(C)c2c(=O)[nH]1` (centres unmarked) [udenafil]: in data set [2] (setting [5]), the “BRLF1 mRNA expression” value was “decreased” and the “BZLF1 mRNA expression” value is listed as “decreased”.
On to `CCCc1nn(C)c2c(=O)[nH]c(-c3cc(S(=O)(=O)N4CCN(C)CC4)ccc3OCC)nc12` [sildenafil], for which, in data set [2] (setting [6]), the EBV copy number result was “decreased”. The “expression of BRLF1 mRNA” value in data set [2] (setting [6]) is reported as “decreased”; in data set [3] (setting [7]), “decreased”; in data set [4], “no significant difference”. The “expression of BZLF1 mRNA” value is “significantly decreased” in data set [2] (SNK6 cells, sildenafil 100 nM together with romidepsin 10 nM, 72 hours, compared to romidepsin alone); “significantly decreased” in data set [3] (NK92MI cells, sildenafil 100 nM together with romidepsin 10 nM, compared to romidepsin alone); “no significant difference” in data set [4]. Besides, the “inhibition of EBV reactivation by romidepsin (BZLF1 mRNA expression)” value in data set [2] (SNK6 cells, sildenafil 10, 100 or 1000 nM in combination with romidepsin 10 nM, 72 hours) is reported as “the effect of inhibiting the reactivation of EBV by romidepsin was observed”; in data set [3] (NK92MI cells, sildenafil 10, 100 or 1000 nM in combination with romidepsin 10 nM), “the effect of inhibiting the reactivation of EBV by romidepsin was observed”. For the same compound, the “expression of BALF5” value in data set [3] (setting [7]) is listed as “decreased”. The “EBV copy number (DNA from the medium)” value in data set [4] is “no significant difference”. Further, the “viability of the SNK6 cell line (trypan blue)” value with SNK6 cells was “decreased”. Also, in the data set on NK92MI cells, the “viability of the NK92MI cell line (trypan blue)” value was “decreased”.
